Measurements reported in US12077503B2, “Substituted cyclic amides and their use as herbicides” (FMC CORPORATION, priority 2015, dated 2024).

What was measured:
Type in all cases: in vivo
[1] = system: giant foxtail (Setaria faberii); assay: Test A preemergence; conditions: Setaria faberi, pre-emergence, 240 h
In short: (§1)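 Seeds sprayed preemergence with a directed soil spray, or plants at 2 to 10 cm height and one- to two-leaf stage sprayed postemergence, with test chemicals in a non-phytotoxic solvent mixture containing surfactant, in loam soil–sand blend. Injury rated visually against untreated controls after about 10 d in greenhouse, 0 (no effect) to 100 (complete control).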

[2] = system: ryegrass, Italian (Italian ryegrass, Lolium multiflorum); assay: Test A preemergence; conditions: Lolium multiflorum, pre-emergence, 240 h
In short: as §1

[3] = system: barnyardgrass (Echinochloa crus-galli); assay: Test A preemergence; conditions: Echinochloa crus-galli, pre-emergence, 240 h
In short: as §1

[4] = system: pigweed (Amaranthus retroflexus); assay: Test A preemergence; conditions: Amaranthus retroflexus, pre-emergence, 240 h
[5] = system: ragweed (common ragweed, Ambrosia elatior); assay: Test A preemergence; conditions: Ambrosia artemisiifolia, pre-emergence, 240 h
In short: as §1

Kochia (Kochia scoparia) [6] = assay: Test A preemergence; conditions: Bassia scoparia, pre-emergence, 240 h
In short: as §1

[7] = system: giant foxtail (Setaria faberii); assay: Test A postemergence; conditions: Setaria faberi, post-emergence, 240 h, read-out: Plant response rating, Foxtail, Giant
In short: as §1

[8] = system: Galium (catchweed bedstraw, Galium aparine); assay: Test A postemergence; conditions: Galium, post-emergence, 240 h, read-out: Plant response rating, Galium
In short: as §1

[9] = system: ryegrass, Italian (Italian ryegrass, Lolium multiflorum); assay: Test A postemergence; conditions: Lolium multiflorum, post-emergence, 240 h, read-out: Plant response rating, Ryegrass, Italian
In short: as §1

[10] = system: barnyardgrass (Echinochloa crus-galli); assay: Test A postemergence; conditions: Echinochloa crus-galli, post-emergence, 240 h, read-out: Plant response rating, Barnyardgrass
In short: as §1

[11] = system: wheat (Triticum aestivum); assay: Test A postemergence; conditions: Triticum aestivum, post-emergence, 240 h, read-out: Plant response rating, Wheat
In short: as §1

corn (Zea mays) = assay: Test A postemergence; conditions: Zea mays, post-emergence, 240 h
In short: as §1

[12] = system: pigweed (Amaranthus retroflexus); assay: Test A postemergence; conditions: Amaranthus retroflexus, post-emergence, 240 h, read-out: Plant response rating, Pigweed
In short: as §1

[13] = system: blackgrass (Alopecurus myosuroides); assay: Test A postemergence; conditions: Alopecurus myosuroides, post-emergence, 240 h, read-out: Plant response rating, Blackgrass
In short: as §1

[14] = system: ragweed (common ragweed, Ambrosia elatior); assay: Test A postemergence; conditions: Ambrosia artemisiifolia, post-emergence, 240 h, read-out: Plant response rating, Ragweed
In short: as §1

Kochia (Kochia scoparia) [15] = assay: Test A postemergence; conditions: Bassia scoparia, post-emergence, 240 h, read-out: Plant response rating, Kochia
In short: as §1

[16] = system: barnyardgrass (Echinochloa crus-galli); assay: Test B flooded paddy test; conditions: Echinochloa crus-galli, 250 g ai/ha, Flood; 0 to 100 scale where 0 is no effect and 100 is complete control; read-out: Barnyardgrass plant response rating
In short: (§2)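 Plants at 2-leaf stage flooded to 3 cm above soil, with compounds applied directly to paddy water and that depth maintained. Plants kept in greenhouse 13–15 d. Visual rating versus controls on a 0 (no effect) to 100 (complete control) scale.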

[17] = system: ducksalad (Heteranthera limosa); assay: Test B flooded paddy test; conditions: Heteranthera limosa, 250 g ai/ha, Flood; 0 to 100 scale where 0 is no effect and 100 is complete control; read-out: Ducksalad plant response rating
In short: as §2

[18] = system: sedge, umbrella (small-flower umbrella sedge, Cyperus difformis); assay: Test B flooded paddy test; conditions: Cyperus difformis, 250 g ai/ha, Flood; 0 to 100 scale where 0 is no effect and 100 is complete control; read-out: Sedge, Umbrella plant response rating
In short: as §2

rice (Oryra sativa) = assay: Test B flooded paddy test; conditions: Oryza sativa, 250 g ai/ha, Flood; 0 to 100 scale where 0 is no effect and 100 is complete control; read-out: Rice plant response rating
In short: as §2

[19] = 125 g ai/ha, Postemergence, visual injury after approximately 10 d, 0 to 100 scale where 0 is no effect and 100 is complete control
[20] = 500 g ai/ha, postemergence, visual injury, 0 to 100 scale (0 no effect, 100 complete control), approx. 10 d

For Cc1cc([C@H]2CN(C)C(=O)[C@@H]2C(=O)Nc2ccccc2F)cc(C)c1Br [Compound 1023], the pest or weed control at 125 g/ha ([1]; 125 g ai/ha, Preemergence, visual injury rating after approximately 10 d, read-out: Foxtail, Giant plant response rating (0 to 100 scale, 0 is no effect, 100 is complete control)) was 90%, the pest or weed control at 500 g/ha ([1]; 500 g ai/ha, preemergence, visual injury rating about 10 d after treatment, 0 to 100 scale (0 no effect, 100 complete control), read-out: Foxtail, Giant plant response rating) was 90% and the pest or weed control at 125 g/ha ([2]; 125 g ai/ha, Preemergence, visual injury rating after approximately 10 d, read-out: Ryegrass, Italian plant response rating (0 to 100 scale, 0 is no effect, 100 is complete control)) was 50%. The pest or weed control at 500 g/ha ([2]; 500 g ai/ha, preemergence, visual injury rating about 10 d after treatment, 0 to 100 scale (0 no effect, 100 complete control), read-out: Ryegrass, Italian plant response rating) was 70%, the pest or weed control at 125 g/ha ([3]; 125 g ai/ha, Preemergence, visual injury rating after approximately 10 d, read-out: Barnyardgrass plant response rating (0 to 100 scale, 0 is no effect, 100 is complete control)) was 90% and the pest or weed control at 500 g/ha ([3]; 500 g ai/ha, preemergence, visual injury rating about 10 d after treatment, 0 to 100 scale (0 no effect, 100 complete control), read-out: Barnyardgrass plant response rating) was 90%. The pest or weed control at 125 g/ha ([4]; 125 g ai/ha, Preemergence, visual injury rating after approximately 10 d, read-out: Pigweed plant response rating (0 to 100 scale, 0 is no effect, 100 is complete control)) was 30%, the pest or weed control at 500 g/ha ([4]; 500 g ai/ha, preemergence, visual injury rating about 10 d after treatment, 0 to 100 scale (0 no effect, 100 complete control), read-out: Pigweed plant response rating) was 30% and the pest or weed control at 125 g/ha ([5]; 125 g ai/ha, Preemergence, visual injury rating after approximately 10 d, read-out: Ragweed plant response rating (0 to 100 scale, 0 is no effect, 100 is complete control)) was 0%. It also gave a pest or weed control at 500 g/ha ([5]; 500 g ai/ha, preemergence, visual injury rating about 10 d after treatment, 0 to 100 scale (0 no effect, 100 complete control), read-out: Ragweed plant response rating) of 40%, a pest or weed control at 125 g/ha (Kochia (Kochia scoparia) [6]; 125 g ai/ha, Preemergence, visual injury rating after approximately 10 d, read-out: Kochia plant response rating (0 to 100 scale, 0 is no effect, 100 is complete control)) of 0% and a pest or weed control at 500 g/ha (Kochia (Kochia scoparia) [6]; 500 g ai/ha, preemergence, visual injury rating about 10 d after treatment, 0 to 100 scale (0 no effect, 100 complete control), read-out: Kochia plant response rating) of 0%. The pest or weed control at 125 g/ha [7, 19] was 70%, the pest or weed control at 500 g/ha [7, 20] was 90% and the pest or weed control at 125 g/ha [8, 19] was 60%. The pest or weed control at 500 g/ha [8, 20] was 60%, the pest or weed control at 125 g/ha [9, 19] was 30% and the pest or weed control at 500 g/ha [9, 20] was 30%. It also gave a pest or weed control at 125 g/ha [10, 19] of 90%, a pest or weed control at 500 g/ha [10, 20] of 90% and a plant injury at 125 g/ha [11, 19] of 0%. It also gave a plant injury at 500 g/ha [11, 20] of 20%, a Corn plant response rating (crop injury, 0 = no effect, 100 = complete kill) at 125 g/ha (corn (Zea mays); [19]) of 0% and a Corn plant response rating (crop injury, 0 = no effect, 100 = complete kill) at 500 g/ha (corn (Zea mays); [20]) of 50%. It also gave a pest or weed control at 125 g/ha [12, 19] of 0%, a pest or weed control at 500 g/ha [12, 20] of 30% and a pest or weed control at 125 g/ha [13, 19] of 0%. For the same molecule, the pest or weed control at 500 g/ha [13, 20] was 20%, the pest or weed control at 125 g/ha [14, 19] was 0% and the pest or weed control at 500 g/ha [14, 20] was 0%. The pest or weed control at 125 g/ha (Kochia (Kochia scoparia) [15]; [19]) was 50%, the pest or weed control at 500 g/ha (Kochia (Kochia scoparia) [15]; [20]) was 50% and the pest or weed control at 250 g/ha [16] was 40%. The pest or weed control at 250 g/ha [17] was 65%, the pest or weed control at 250 g/ha [18] was 0% and the pest or weed control at 250 g/ha (rice (Oryra sativa)) was 20%.
